According to patent US20110111016A1, “NON-DNA BASE-CONTAINING POLYNUCLEOTIDE COMPOSITIONS AND THEIR USE FOR THE MODULATION OF IMMUNE RESPONSES” (priority 2009, published 2011):

Experiments:
human TLR8 = target: T1, human TLR8 (Homo sapiens, UniProt Q9NR97); experiment: NF-κB activation (secreted alkaline phosphatase reporter) in HEK293 cells expressing human TLR8; type: cell-based; conditions: HEK293/hTLR8 cell line; polynucleotide final concentration 10 μg/mL; 16-20 hours
T1 construct: host or cells: HEK293
T1 sequence (Q9NR97 27-1041): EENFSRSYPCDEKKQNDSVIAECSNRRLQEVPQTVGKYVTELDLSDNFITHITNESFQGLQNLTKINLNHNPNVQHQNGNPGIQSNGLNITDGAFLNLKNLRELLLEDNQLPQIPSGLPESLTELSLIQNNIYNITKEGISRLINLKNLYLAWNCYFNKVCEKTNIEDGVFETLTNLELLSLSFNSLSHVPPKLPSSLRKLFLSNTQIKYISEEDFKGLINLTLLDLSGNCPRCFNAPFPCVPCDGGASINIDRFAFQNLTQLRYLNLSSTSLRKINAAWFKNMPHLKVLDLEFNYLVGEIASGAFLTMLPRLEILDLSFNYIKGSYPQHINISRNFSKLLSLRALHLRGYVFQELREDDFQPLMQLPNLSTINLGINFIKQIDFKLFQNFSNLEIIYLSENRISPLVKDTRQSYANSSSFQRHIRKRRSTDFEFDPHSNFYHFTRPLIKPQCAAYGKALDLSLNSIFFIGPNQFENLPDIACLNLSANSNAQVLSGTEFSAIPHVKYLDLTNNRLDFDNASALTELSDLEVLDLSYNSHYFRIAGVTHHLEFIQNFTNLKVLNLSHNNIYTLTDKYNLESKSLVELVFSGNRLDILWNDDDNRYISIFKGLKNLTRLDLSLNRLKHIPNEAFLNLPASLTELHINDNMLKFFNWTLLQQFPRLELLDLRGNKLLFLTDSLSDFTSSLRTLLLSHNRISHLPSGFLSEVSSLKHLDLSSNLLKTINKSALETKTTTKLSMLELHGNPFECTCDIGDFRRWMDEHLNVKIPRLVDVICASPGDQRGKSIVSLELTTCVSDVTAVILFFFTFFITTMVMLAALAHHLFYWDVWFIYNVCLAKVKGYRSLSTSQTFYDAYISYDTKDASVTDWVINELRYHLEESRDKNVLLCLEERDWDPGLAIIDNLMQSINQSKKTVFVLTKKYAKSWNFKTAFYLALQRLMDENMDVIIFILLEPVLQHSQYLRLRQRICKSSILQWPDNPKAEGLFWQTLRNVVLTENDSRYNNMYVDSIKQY
Procedure: Toll-like receptors (TLR) are known to interact with a number of natural and synthetic molecules that can function as immune adjuvants. Examples of these molecules are Poly (I:C) polynucleotides, lipopolysaccharide and CpG-containing polynucleotides. […] TLR engagement was determined by measurement of secreted alkaline phosphatase, under the control of a reporter inducible by NF-κB. Appropriate positive controls were used for each TLR. The non-DNA base-containing polynucleotides were dissolved in sterile water at a concentration of 100 μg/mL, and used at a final concentration of 10 μg/mL. HEK293 cells containing the appropriate TLR and NF-κB reporting system (InvivoGen, San Diego, Calif., USA) were placed in wells of 96 well plates (25,000-50,000 cells, in a final volume of 200 μL medium designed for the detection of NF-κB induced secreted alkaline phosphatase expression), and incubated with non-DNA base-containing polynucleotides or positive controls for 16-20 hours. TLR activating activity was determined by measurement of absorbance at 650 nm wavelength using a Coulter AD340C absorbance detector. The results shown are expressed as Optical Density (OD).

human TLR2 = target: T2, human TLR2 (Homo sapiens, UniProt O60603); experiment: NF-κB activation (secreted alkaline phosphatase reporter) in HEK293 cells expressing human TLR2; type: cell-based; conditions: HEK293/hTLR2 cell line; polynucleotide final concentration 10 μg/mL; 16-20 hours
T2 construct: host or cells: HEK293
T2 sequence (O60603 21-784): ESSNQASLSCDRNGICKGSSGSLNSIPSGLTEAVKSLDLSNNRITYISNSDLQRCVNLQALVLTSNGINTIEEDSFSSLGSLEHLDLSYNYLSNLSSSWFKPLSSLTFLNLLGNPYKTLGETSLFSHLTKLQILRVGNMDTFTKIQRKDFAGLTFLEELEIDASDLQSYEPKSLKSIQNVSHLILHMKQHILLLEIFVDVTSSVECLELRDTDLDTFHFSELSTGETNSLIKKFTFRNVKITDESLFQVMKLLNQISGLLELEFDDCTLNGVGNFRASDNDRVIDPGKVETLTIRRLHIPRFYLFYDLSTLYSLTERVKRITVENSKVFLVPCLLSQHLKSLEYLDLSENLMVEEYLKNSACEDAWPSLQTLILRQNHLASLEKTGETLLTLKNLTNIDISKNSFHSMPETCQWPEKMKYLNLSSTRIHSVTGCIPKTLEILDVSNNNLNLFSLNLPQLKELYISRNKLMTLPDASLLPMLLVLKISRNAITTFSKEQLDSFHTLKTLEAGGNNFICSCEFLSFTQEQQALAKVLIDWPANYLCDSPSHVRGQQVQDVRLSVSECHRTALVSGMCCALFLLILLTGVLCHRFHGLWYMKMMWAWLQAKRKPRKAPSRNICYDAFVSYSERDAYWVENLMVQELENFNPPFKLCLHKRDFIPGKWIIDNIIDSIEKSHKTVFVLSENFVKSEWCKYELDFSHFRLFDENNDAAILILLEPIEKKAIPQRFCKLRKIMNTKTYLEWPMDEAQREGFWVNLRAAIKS
Procedure: Toll-like receptors (TLR) are known to interact with a number of natural and synthetic molecules that can function as immune adjuvants. Examples of these molecules are Poly (I:C) polynucleotides, lipopolysaccharide and CpG-containing polynucleotides. The interaction of non-DNA base-containing polynucleotides (SEQ ID NOs: 1-3) to interact with TLR and induce down-stream signaling was tested by assessing NF-κB activation in HEK293 cells expressing human TLR2, 3, 4, 5, 7, 8 and 9. TLR engagement was determined by measurement of secreted alkaline phosphatase, under the control of a reporter inducible by NF-κB. Appropriate positive controls were used for each TLR. The non-DNA base-containing polynucleotides were dissolved in sterile water at a concentration of 100 μg/mL, and used at a final concentration of 10 μg/mL. HEK293 cells containing the appropriate TLR and NF-κB reporting system (InvivoGen, San Diego, Calif., USA) were placed in wells of 96 well plates (25,000-50,000 cells, in a final volume of 200 μL medium designed for the detection of NF-κB induced secreted alkaline phosphatase expression), and incubated with non-DNA base-containing polynucleotides or positive controls for 16-20 hours. TLR activating activity was determined by measurement of absorbance at 650 nm wavelength using a Coulter AD340C absorbance detector. The results shown are expressed as Optical Density (OD).

Substance | TLR activation, Optical Density at 650 nm, hTLR8 (human TLR8) | TLR activation, Optical Density at 650 nm, hTLR2 (human TLR2)
IIGTII [SEQ ID NO: 3] | 0.128 | 0.095
UUGTUU [SEQ ID NO: 2] | 0.120 | 0.095
NebGGTGNeb (DNA NGGTGN; Nebularine at both ends, sugar and linkages not given here, further chemistry not given here) [SEQ ID NO: 1, 5′-OH, 3′-OH non-DNA base-containing polynucleotide] | 0.118 | 0.093
